# Experimental data as given in US10449152B2, “Drug loaded microspheres for post-operative chronic pain” (priority 2014, dated 2019).
# Key:
# [1] = tested on: post-operative hyperalgesia after paw incision; assay: paw incision post-operative hyperalgesia, injection at the sciatic nerve; type: in vivo, rats; settings: nerve block before paw incision
# Method: Microspheres of Example 1 were also tested for anti-hyperalgesic effects after rodent surgery. […] If microspheres of Example 1 were injected at the sciatic nerve approximately 1.5 hours before the surgery, the subsequent post-operative hyperalgesia was suppressed for about 4 days. In contrast, nerve block by 0.5% by weight aqueous bupivacaine solution suppressed post-operative hyperalgesia for about 6 hours. Microspheres of Example 2 were ineffective against post-incisional pain.
# [2] = tested on: sciatic nerve; assay: sciatic nerve block in rats (paw pinch, motor block); type: in vivo; settings: single bolus of about 0.4 milliliters at the sciatic nerve
# Method: The microspheres of Example 1 were also tested for sciatic nerve block and for subcutaneous infiltration anesthesia in rats. Sciatic nerves were injected with nominal doses of microspheres of Example 1, having about 40 milligrams of bupivacaine, by injection as a single bolus of about 0.4 milliliters. […] Half-recovery of these respective functions occurred at about 42±6 hours and 36±3 hours, and normal, pre-block function was restored by about 63±8 hours for nociception and about 56±7 hours for motor block. By comparison, injection of about 0.4 milliliters of about 0.5% by weight aqueous bupivacaine solution gave complete blocks for only about 0.5 hours to about 1 hours for nociception and about 1 hour for motor functions, with complete recovery by about 3 hours for both functions.
# [3] = tested on: post-operative allodynia and hyperalgesia; assay: incision and blunt dissection of the back skin, post-operative allodynia and hyperalgesia; type: in vivo, rats; settings: about 0.4 milliliters subcutaneous infiltration
# Method: In a second surgical scenario, Microspheres of Example 1 were injected as a subcutaneous infiltration in the thoraco-lumbar region before an incision and blunt dissection of the back skin. Microspheres of Example 1, including about 40 milligrams of bupivacaine, were injected as a single bolus of about 0.4 milliliters. The injection produced anesthesia to VFH pokes at the injected area for about 6 hours and anesthesia to pin pricks for about 12 hours. Post-operative allodynia and hyperalgesia in this model lasted for about 14 days, but were suppressed for approximately 5 days and 3 days, respectively, by microspheres of Example 1 injected approximately 2 hours before surgery. About 0.4 milliliters of 0.5% by weight aqueous bupivacaine solution was ineffective in reducing post-operative hypersensitivity, just as the microspheres of Example 2 were also ineffective.
# [4] = tested on: sciatic nerve; assay: sciatic nerve block, latency for leg withdrawal from noxious heat; type: in vivo, male S-D rats; settings: about 0.6 milliliters next to the sciatic nerve; heat stimulus of about 56° C.
# Method: The anti-nociceptive activity of EXPAREL® particles was also tested. The latency for leg withdrawal in male S-D rats from a noxious heat stimulus of about 56° C. applied to the plantar surface of the paw was used to test the duration of functional sciatic nerve block achieved using EXPAREL®. The normal latency for paw withdrawal was about 2 seconds and “maximal sensory blockade” was characterized by a latency of about 12 seconds. Sensory blockade of about 0.6 milliliters of EXPAREL® containing about 7.8 milligrams of bupivacaine, injected next to the sciatic nerve of an adult male S-D rat weighing from about 310 grams to about 420 grams, which was equivalent to about 25 milligrams of bupivacaine per kilogram, was determined by the time from injection until the latency returned to about 7 seconds, half way back to the pre-injection latency of about 2 seconds. By this criterion, the sensing block from EXPAREL® lasted about 240 minutes, and that from 0.6 milliliter solution of about 0.5% by weight bupivacaine, which was used as a control, lasted about 120 minutes.
compound,measurement,setting,value
CCCCN1CCCCC1C(=O)Nc1c(C)cccc1C (stereo not drawn) [bupivacaine],time for which post-operative hyperalgesia was suppressed,[1],about 6 hours
same,duration of complete motor block (total flaccid paralysis),[2],about 1 hours
same,"time to normal, pre-block function (complete recovery), motor",[2],about 3 hours
same,"time to normal, pre-block function (complete recovery), nociception",[2],about 3 hours
same,reduction of post-operative hypersensitivity,[3],ineffective
same,duration of sensory block (time until latency returned to about 7 seconds),[4],about 120 minutes
